{"source": "patent US20030129224A1", "about": "“Lipid carrier compositions and methods for improved drug retention” (priority 2001, published 2003)", "key": {"[1]": {"assay": "Daunorubicin retention in liposomes in blood after intravenous injection (time course)", "format": "in vivo, Balb/c mice", "settings": "low-cholesterol liposomes DSPC/DSPE-PEG2000 (95:5); citrate 600 mOsm/kg (300 mM) in relation to 300 mOsm/kg (150 mM); i.v.; 1, 4, 24 h", "protocol": "DSPC/DSPE-PEG2000 liposomes (95:5 mole ratio) containing 150 or 300 mM citrate (300 or 600 mOsm/kg), pH 4 and DSPC/Cholesterol (55:45 mole ratio) and DSPC/Cholesterol/DSPE-PEG2000 (50:45:5 mole ratio) liposomes containing 150 mM citrate, pH 4 were prepared as described in Example 1. Liposomes were subsequently combined with daunorubicin at a 0.2:1 drug to lipid mole ratio. To facilitate drug loading, the mixtures were incubated at 40° C. for 60 minutes.\nThe resulting daunorubicin-containing liposomes were administered to Balb/c female mice at a lipid dose of 165 μmoles/kg as detailed above. Blood samples were removed at 1, 4 and 24 hours post administration by cardiac puncture (3 mice per time point). Lipid levels were determined by liquid scintillation counting. Daunorubicin was extracted from plasma samples and quantified as follows: a defined volume of plasma was adjusted to 200 μL with distilled water followed by addition of 600 μL of distilled water, 100 μL of 10% SDS and 100 μL of 10 mM H2SO4. This solution was mixed and 2 mLs of 1:1 isopropanol/chloroform was added followed by vortexing. […] The bottom organic layer was removed and assayed for fluorescence intensity at 500 nm as the excitation wavelength (2.5 nm bandpass) and 550 nm as an emission wavelength (10 nm bandpass) and using an absorbance wavelength of 480 nm."}, "[2]": {"assay": "Daunorubicin retention 4 hours after intravenous injection, varying internal citrate", "format": "in vivo, Balb/c mice", "settings": "DSPC/DSPE-PEG2000 (95:5); 100, 150 and 200 mM internal citrate (about 200, 300, 400 mOsm/kg), versus 250 and 300 mM; 4 hours after i.v.", "procedure": "Daunorubicin was loaded at a 0.2:1 drug-to-lipid mole ratio with the methods detailed above into each of the five liposomal formulations. The resulting liposomes were administered to female Balb/c mice at a lipid dose of 165 μmoles/kg in a final volume of 200 μL immediately after preparation (within 1-2 hrs). Blood samples were removed 4 hours after administration by cardiac puncture (3 mice per time point). Lipid and daunorubicin levels were determined as described previously and percent initial drug-to-lipid ratio was reported as the mean±SD."}, "[3]": {"assay": "Idarubicin retention in liposomes in blood after intravenous injection", "format": "in vivo, Balb/c mice", "settings": "cholesterol-free DSPC/DSPE-PEG2000 (95:5); 300 mM citrate (>500 mOsm/kg) in relation to 100 and 150 mM (<500 mOsm/kg); i.v.; 0.5-24 h", "procedure": "DSPC/DSPE-PEG2000 (95:5 mole ratio) liposomes containing the non-exchangeable marker ^3H-CHE were prepared as described in Example 1, except that lipid films were hydrated with 100, 150, 200, 250 or 300 mM citrate, pH 4.0 (corresponding to osmolarity levels of about 200, 300, 400, 500 or 600 mOsm/kg, respectively).\nDSPC/DSPE-PEG2000 (95:5 mole ratio) liposomes prepared with 100, 150 and 300 mM citrate were also loaded with idarubicin at a drug to lipid mole ratio of 0.25:1. Loading was facilitated by incubating the drug and liposomes at 37° C. for 60 minutes. Liposomes were administered to Balb/c mice as indicated and blood samples were removed by cardiac puncture at 0.5, 1, 2, 4 and 24-hours post administration (3 mice per time point). Idarubicin concentration was quantitated using fluorescence intensity at 485 nm as the excitation wavelength and 535 nm as an emission wavelength and using an absorbance wavelength of 482 nm."}, "[4]": {"assay": "Freeze/thaw stability of DSPC/DSPG liposomes (drug-to-lipid ratio and size) at -20 or -70 C for 24 hours", "format": "physicochemical", "settings": "0-20 mole % cholesterol, 250 mM CuSO4 internal, frozen at -20 C and -70 C for 24 hours", "protocol": "FUDR and irinotecan were loaded into cholesterol-free liposomes containing a low osmolarity internal solution and drug retention and liposome size were measured prior to and after freezing. DSPC/DSPG liposomes containing 0-20 mole % cholesterol, 20 mole % DSPG and passively entrapped FUDR were prepared as described previously and hydrated in 250 mM CuSO4 (<500 mOsm/kg). The MLVs were extruded at 70° C. as detailed above and buffered exchanged into saline and then into 300 mM sucrose, 20 mM Hepes, 30 mM EDTA (SHE), pH 7.4 using a hand-held tangential flow column. The sample was then further exchanged into 300 mM sucrose, 20 mM Hepes, pH 7.4 to remove residual EDTA. The liposomes were subsequently loaded with irinotecan at a drug-to-lipid mole ratio of 0.1:1 by mixing the two solutions at 50° C. for five minutes. The dual-loaded liposomes were then buffered exchanged into HBS using tangential flow to remove any unencapsulated drug.\nThe influence of freezing on liposome stability was determined by freezing the liposomes at either −20° C. or −70° C. for 24 hours. […] Lipid and FUDR levels were quantified using liquid scintillation and absorbance at 370 nm was used to determine irinotecan concentration. Particle sizing of the liposomes was also determined prior to and after freezing using quasi-elastic light scattering."}, "[5]": {"assay": "Vincristine retention in liposomes in blood after intravenous injection of Balb/c mice", "format": "in vivo", "settings": "i.v., 1, 4, 24 h", "protocol": "Solutions of lipids in chloroform were combined to give a 95:5 molar ratio of DSPC/DSPE-PEG2000 or a 55:45 molar ratio of DSPC/Cholesterol, with trace amounts of ^14C-cholesteryl hexadecyl ether (^14C-CHE). The resulting mixtures were dried under a stream of nitrogen gas and placed in a vacuum pump overnight. The samples were hydrated at 70° C. with either 300 mM citrate, pH 4.0 (about 600 milliosmoles/kg (mOsm/kg)) or 150 mM citrate buffer, pH 4.0 (about 300 mOsm/kg) and passed through an extrusion apparatus (Northern Lipids Inc., Vancouver, BC) ten times with two 100 nm pore size polycarbonate filters at 70° C. Average liposome size was determined by quasi-elastic light scattering using a NICOMP 370 submicron particle sizer operating at a wavelength of 632.8 nm. The resulting liposomes were applied to a Sephadex G50 column equilibrated with HBS (20 mM HEPES, 150 mM NaCl, about 320 mOsm/kg), pH 7.45 to exchange the external liposomal buffer. […]\nVincristine-containing liposomes were administered intravenously to Balb/c mice at a lipid dose of 165 μmoles/kg in a final volume of 200 μL immediately after preparation (within 1-2 hrs). […] Lipid and vincristine levels were quantified by liquid scintillation counting and the values were reported as the mean±standard deviation (SD)."}}}
{"compound": "COc1cccc2c1C(=O)c1c(O)c3c(c(O)c1C2=O)C[C@@](O)(C(C)=O)C[C@@H]3O[C@H]1C[C@H](N)[C@H](O)[C@H](C)O1", "note": "[daunorubicin]", "values": [{"measurement": "daunorubicin retention (percent initial daunorubicin-to-lipid ratio remaining in the blood)", "setting": "[1]", "result": "compromised"}, {"measurement": "retention of daunorubicin (percent initial drug-to-lipid ratio in the blood)", "setting": "[2]", "result": "optimal retention"}]}
{"compound": "CC(=O)[C@]1(O)Cc2c(O)c3c(c(O)c2[C@@H](O[C@H]2C[C@H](N)[C@H](O)[C@H](C)O2)C1)C(=O)c1ccccc1C3=O", "note": "[idarubicin]", "values": [{"measurement": "idarubicin retention (idarubicin-to-lipid mole ratio in the blood)", "setting": "[3]", "result": "significantly decreased"}]}
{"compound": "CCc1c2c(nc3ccc(OC(=O)N4CCC(N5CCCCC5)CC4)cc13)-c1cc3c(c(=O)n1C2)COC(=O)[C@]3(O)CC", "note": "[irinotecan]", "values": [{"measurement": "retention of irinotecan after freezing (drug-to-lipid ratio)", "setting": "[4]", "result": "effectively retained"}]}
{"compound": "CC[C@]1(O)C[C@H]2CN(CCc3c([nH]c4ccccc34)[C@@](C(=O)OC)(c3cc4c(cc3OC)N(C=O)[C@H]3[C@@](O)(C(=O)OC)[C@H](OC(C)=O)[C@]5(CC)C=CCN6CC[C@]43[C@@H]65)C2)C1", "note": "[vincristine]", "values": [{"measurement": "retention of vincristine (percent initial vincristine-to-lipid weight ratio in the blood)", "setting": "[5]; cholesterol containing liposomes DSPC/cholesterol (55:45), 150 vs 300 mM citrate", "result": "independent of the osmolarity of the intraliposomal solution"}, {"measurement": "retention of vincristine (percent initial vincristine-to-lipid weight ratio in the blood)", "setting": "[5]; low-cholesterol liposomes DSPC/DSPE-PEG2000 (95:5), internal citrate 300 mOsm/kg (150 mM) compared to 600 mOsm/kg (300 mM)", "result": "significantly enhanced"}]}
